# Measurements reported in ChEMBL document CHEMBL1201862, “PubChem BioAssay data set” (2004).
#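 Exposure lasted 48 hours, with cells grown in 96-well plates and compounds tested at five concentrations. GI50: concentration for 50% inhibition of growth.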 The source made the active and inactive calls. Cut-off read from the data, not from the text of the source: active = GI50 up to about 1.1 µM and inactive = higher.
# How the values were obtained:
# Assay in all cases: NCI tumour cell line growth inhibition, 48 h
# [1] = test system: EKVX
# [2] = test system: SF-539
# [3] = test system: MDA-MB-435
# [4] = test system: UACC-62
# [5] = test system: SR
# [6] = test system: NCI/ADR-RES
# [7] = test system: MDA-MB-231
# [8] = test system: CAKI-1
# [9] = test system: HOP-62
# [10] = test system: A498
# [11] = test system: KM12
# [12] = test system: RPMI-8226
# [13] = test system: Hs-578T
# [14] = test system: MDA-N
# [15] = test system: MCF7
# [16] = test system: NCI-H226
# [17] = test system: PC-3
SMILES,GI50 [1],GI50 [2],GI50 [3],GI50 [4],GI50 [5],GI50 [6],GI50 [7],GI50 [8],GI50 [9],GI50 [10],GI50 [11],GI50 [12],GI50 [13],GI50 [14],GI50 [15],GI50 [16],GI50 [17]
CCN1C(=O)c2cc(OC)c(OC)cc2C(=O)C12OC(=O)c1cc3c(cc12)OCO3 (configuration not stated),> 100 µM (inactive),53.2 µM (inactive),> 100 µM (inactive),80.5 µM (inactive),51.4 µM (inactive),> 100 µM (inactive),41.4 µM (inactive),> 100 µM (inactive),49.4 µM (inactive),> 100 µM (inactive),> 100 µM (inactive),24.1 µM (inactive),36.8 µM (inactive),> 100 µM (inactive),78.9 µM (inactive),> 100 µM (inactive),> 100 µM (inactive)
CCCCCCCCCCCC1=NCCN1,–,–,> 100 µM (inactive),–,19.9 µM (inactive),> 100 µM (inactive),23.8 µM (inactive),–,–,0.557 µM (active),63.8 µM (inactive),–,83.9 µM (inactive),> 100 µM (inactive),38.9 µM (inactive),> 100 µM (inactive),19.4 µM (inactive)
CCOc1c(/N=N/c2ccccc2Cl)c(-c2ccccc2)nn1C(=S)S,30.9 µM (inactive),14.2 µM (inactive),29 µM (inactive),31.2 µM (inactive),26.5 µM (inactive),33.8 µM (inactive),15.7 µM (inactive),18.7 µM (inactive),> 100 µM (inactive),–,33 µM (inactive),–,22.2 µM (inactive),–,37.8 µM (inactive),20.8 µM (inactive),48.2 µM (inactive)
CCP(=O)(CC)C(Cl)(Cl)C(O)C(C)(C)C (configuration not stated),–,–,> 100 µM (inactive),–,> 100 µM (inactive),> 100 µM (inactive),> 100 µM (inactive),> 100 µM (inactive),> 100 µM (inactive),> 100 µM (inactive),–,> 100 µM (inactive),> 100 µM (inactive),> 100 µM (inactive),> 100 µM (inactive),> 100 µM (inactive),> 100 µM (inactive)
OCc1cn(C(c2ccccc2)(c2ccccc2)c2ccccc2)cn1,–,–,> 100 µM (inactive),–,> 100 µM (inactive),> 100 µM (inactive),> 100 µM (inactive),91.6 µM (inactive),44.5 µM (inactive),–,–,> 100 µM (inactive),33.7 µM (inactive),> 100 µM (inactive),–,> 100 µM (inactive),27.5 µM (inactive)
Brc1cccc(Nc2ncnc3sc4c(c23)CCC(Nc2cccc(Br)c2)C4)c1 (configuration not stated),> 100 µM (inactive),–,> 100 µM (inactive),> 100 µM (inactive),–,> 100 µM (inactive),> 100 µM (inactive),79.8 µM (inactive),> 100 µM (inactive),–,> 100 µM (inactive),–,> 100 µM (inactive),> 100 µM (inactive),83.8 µM (inactive),–,> 100 µM (inactive)
CC(C)c1cccc(C(C)C)c1OS(=O)(=O)NC(=O)OC(C(F)(F)F)C(F)(F)F,37.8 µM (inactive),30.6 µM (inactive),57.1 µM (inactive),–,36 µM (inactive),32.7 µM (inactive),36.9 µM (inactive),> 100 µM (inactive),34.8 µM (inactive),71.9 µM (inactive),43.7 µM (inactive),16.4 µM (inactive),> 100 µM (inactive),56.9 µM (inactive),32 µM (inactive),35.8 µM (inactive),36.7 µM (inactive)
CC(=O)/N=C1/N(/C=C2\C(=O)Oc3ccccc3C2=O)C(=O)/C(=C/c2ccc(NC(C)=O)cc2)N1C,> 100 µM (inactive),> 100 µM (inactive),> 100 µM (inactive),> 100 µM (inactive),> 100 µM (inactive),> 100 µM (inactive),> 100 µM (inactive),> 100 µM (inactive),> 100 µM (inactive),> 100 µM (inactive),> 100 µM (inactive),> 100 µM (inactive),44.4 µM (inactive),> 100 µM (inactive),> 100 µM (inactive),> 100 µM (inactive),> 100 µM (inactive)
O=C(Nc1cccc(C(=O)NCCCO)c1)/C(=C/c1ccccc1)NC(=O)c1ccccc1,> 100 µM (inactive),> 100 µM (inactive),> 100 µM (inactive),> 100 µM (inactive),–,> 100 µM (inactive),> 100 µM (inactive),> 100 µM (inactive),> 100 µM (inactive),> 100 µM (inactive),> 100 µM (inactive),> 100 µM (inactive),> 100 µM (inactive),> 100 µM (inactive),> 100 µM (inactive),> 100 µM (inactive),> 100 µM (inactive)
Cc1ccc(S(=O)(=O)N2CCCSCC2)cc1,–,–,95.7 µM (inactive),–,> 100 µM (inactive),> 100 µM (inactive),> 100 µM (inactive),–,–,> 100 µM (inactive),> 100 µM (inactive),–,72.4 µM (inactive),> 100 µM (inactive),> 100 µM (inactive),> 100 µM (inactive),> 100 µM (inactive)
C=CS(=O)(=O)CCN1CC1,–,> 10 µM (inactive),> 10 µM (inactive),> 10 µM (inactive),> 10 µM (inactive),> 10 µM (inactive),> 10 µM (inactive),> 10 µM (inactive),> 10 µM (inactive),–,> 10 µM (inactive),> 10 µM (inactive),> 10 µM (inactive),> 10 µM (inactive),> 10 µM (inactive),–,> 10 µM (inactive)
COc1cccc(/C=C/C(=O)N2CC(CCl)c3c2cc(N)c2ccccc32)c1 (configuration not stated),0.0142 µM (active),–,0.00319 µM (active),0.00298 µM (active),–,0.0731 µM (active),0.0039 µM (active),0.000566 µM (active),< 0.01 µM (active),0.00665 µM (active),0.00434 µM (active),0.0507 µM (active),0.00968 µM (active),0.0143 µM (active),0.000238 µM (active),0.0137 µM (active),0.00284 µM (active)
CCOC(=O)/C(=C/c1cn(C(C)=O)c2ccccc12)P(=O)(OC)OC,–,–,36.4 µM (inactive),–,24.8 µM (inactive),29.2 µM (inactive),43.8 µM (inactive),31.9 µM (inactive),63.4 µM (inactive),15.3 µM (inactive),–,19.9 µM (inactive),31 µM (inactive),–,< 0.01 µM (active),–,25.9 µM (inactive)
CCc1c(-c2ccccc2)[nH]c2ccccc2c1=O,81.1 µM (inactive),50.5 µM (inactive),46.2 µM (inactive),28.8 µM (inactive),49.1 µM (inactive),–,70.6 µM (inactive),19.8 µM (inactive),47.4 µM (inactive),33.4 µM (inactive),16.4 µM (inactive),23.4 µM (inactive),–,47.5 µM (inactive),57.1 µM (inactive),27.7 µM (inactive),–
